The conditions of data set [1]: cited from earlier work.
For data set [2] the following is noted: in vivo. The text has this: Birds in the C+ group are fed a standard commercial diet which contains several carotenoids; this diet also contains synthetic alpha-tocopherol (Vitamin E) as an additive.
For data set [3] the following is noted: macular degeneration; cited from earlier work.
For data set [4] the following is noted: of all known carotenoids; cited from earlier work.
The nature of data set [5]: Feeding of F. multivorum cell paste to birds or fish. To be noted: cell paste fed directly. It is filed as in vivo. The text has this: Although this option has not yet been fully evaluated, it is possible that the Flavobacterium multivorum cells themselves, in intact form and possibly even in a viable state, may be suitable for direct ingestion by humans. A substantial number of human foods (including cheese, yogurt, beer, etc.) contain viable or killed-but-intact microbial cells, and there is no known pathogenicity associated with the F. multivorum cells isolated by Applied Food Biotechnology, Inc. They were isolated from a relatively cold artesian waterway, and since they are adapted to living in cold water, they cannot survive or reproduce well at temperatures inside the human body. […] When fed directly in the form of a cell paste to animals such as birds or fish, these cells appear to be well-suited as delivery vehicles for zeaxanthin.

Data set [6] can be described thus: Pasteurization of cell culture by heating. Type of data set: physicochemical. To be noted: stabilizers added.
Procedure: After the stabilizing compounds are added, a bacterial cell culture can be pasteurized by heating to 55° C. for 25 minutes.
After the stabilizing compounds are added, the cell culture is pasteurized by heating to 55° C. for 25 to 50 minutes.
The subject of another data set is chickens. The conditions noted are these: cited from earlier work.
The conditions of data set [7]: per-weight basis; cited from earlier work.

As to `CC1=C(/C=C/C(C)=C/C=C/C(C)=C/C=C/C=C(C)/C=C/C=C(C)/C=C/C2=C(C)C(=O)CCC2(C)C)C(C)(C)CCC1=O` [Canthaxanthin], in data set [1] (in vivo), the “crystal formation in retinal tissue” value is “can cause crystal formation which can destroy retinal cells and tissue”; the “deposition in human skin” value is on record as “is deposited in human skin”; the “displacement of lutein in retinal tissue” value is reported as “can displace lutein”. In data set [1] (ingested), the retinal toxicity entry was “shown to cause retinal maculopathy”. Besides, in data set [2], the Concentration in retina was found to be 1.7 ng per mg retina.
`CC1=C[C@H](O)CC(C)(C)[C@H]1/C=C/C(C)=C/C=C/C(C)=C/C=C/C=C(C)/C=C/C=C(C)/C=C/C1=C(C)C[C@@H](O)CC1(C)C` [Lutein] came in with a Concentration in retina in data set [2] of 1.0 ng per mg retina.
For `CC1=C(/C=C/C(C)=C/C=C/C(C)=C/CO)C(C)(C)CCC1` [Retinol (Vit. A)], in data set [3], the “benefits in the retina” value is listed as “very limited”. The same compound returned a Concentration in retina in data set [2] of 5.8 ng per mg retina.
For `CC(C=CC=C(C)C=CC1=C(C)CCCC1(C)C)=CC=CC=C(C)C=CC=C(C)C=CC1C(C)=CC(O)CC1(C)C` (stereo not drawn) [alpha-Cryptoxanthan], the Concentration in retina in data set [2] is recorded as 1.4 ng per mg retina.
Turning to `Cc1c(C)c2c(c(C)c1O)CCC(C)(CCCC(C)CCCC(C)CCCC(C)C)O2` (stereo not drawn) [alpha-Tocopherol], in data set [3], the “benefits in the retina” value is “very limited”. Besides, in data set [2], the Concentration in retina came to 15.6 ng per mg retina.
Regarding `Cc1c(O)cc2c(c1C)O[C@](C)(CCC[C@H](C)CCC[C@H](C)CCCC(C)C)CC2` [gamma-Tocopherol], in data set [2], the Concentration in retina was 5.0 ng per mg retina.
For `CC(C)=CCC/C(C)=C/C=C/C(C)=C/C=C/C(C)=C/C=C/C=C(C)/C=C/C=C(C)/C=C/C=C(\C)CCC=C(C)C` [lycopene], the singlet oxygen quenching result in data set [4] is given as “best singlet oxygen quencher of all known carotenoids”.
`CC1=C(/C=C/C(C)=C/C=C/C(C)=C/C=C/C=C(C)/C=C/C=C(C)/C=C/C2=C(C)C[C@@H](O)CC2(C)C)C(C)(C)C[C@H](O)C1` [zeaxanthin, 3,3'-dihydroxy-β-β-carotene]: the “absorption and tissue deposition after feeding” value in data set [5] is “absorbed into the bloodstream and deposited into various tissues at expected and appropriate tissue locations”. Moreover, in data set [2], the Concentration in retina was found to be 4.7 ng per mg retina. Also, the “damage to zeaxanthin on pasteurization” value in data set [6] (55° C. for 25 to 50 minutes) and in data set [6] (55° C. for 25 minutes) was “without damaging the zeaxanthin” each time. The “coloration of chickens fed cells and their zeaxanthin pigment” value in the data set with chickens (cells ATCC 21081 and 21588, U.S. Pat. No. 3,891,504) is “caused suitable coloration”. The “coloring potency relative to lutein” value in the data set with chickens (per-weight basis, skin and egg yolks) is listed as 2-3 times. In addition, in data set [7], the “effectiveness in imparting color relative to lutein” value was “several times more effective”.
For the compound `CC1=C(/C=C/C(C)=C/C=C/C(C)=C/C=C/C=C(C)/C=C/C=C(C)/C=C/C2=C(C)CCCC2(C)C)C(C)(C)CCC1` [β-Carotene], the “benefits in the retina” value in data set [3] was “very limited”. For the same compound, the “Detection of β-Carotene in retinas” value in data set [2] is on record as “No β-Carotene was detected”.

Source of the values: US5854015A, “Method of making pure 3R-3'R stereoisomer of zeaxanthin for human ingestion” (priority 1995, dated 1998).
